Laboratory results published in EP0409999A1, “LIQUID PREPARATION FOR INTRAOCULAR PERFUSION” (Senju Pharmaceutical Co., Ltd., priority 1989, dated 1990).

Tested on: corneal endothelial cell monolayer
Test: Corneal endothelial barrier function: CF permeation through cultured corneal endothelial cell monolayer on permeable collagen membrane
Format: cell-based, male white rabbits
Settings: result in words; effect grows with increasing concentration of substance (I) in the test solution
Experimental: The eyeballs of male white rabbits were enucleated and in a culture medium prepared by adding 10 % fetal calf serum to Dulbecco's Modified MEM (trademark: Dulbecco's Modified Eagle Medium "Nissui" 2, Nissui Pharmaceutical), (hereinafter referred to as DMEM), the cornea was cut out along the corneosclerai limbus with a pair of scissors. From each of the isolated corneal specimens (8 eyes), the endothelium with Descemet's membrane was peeled off, shorn into small pieces, and seeded with about 5 ml of DMEM in a 75 cm^2 culture flask (trademark: Nunclon Tissue Culture Flask 147589; manufactured by Nunc). After adhesion of the cells to the bottom of the flask, about 20 ml of DMEM was added and the cells were cultured for about 7 days until the growth on the internal wall of the flask became confluent. During this period, the medium was replaced with fresh one every 3 days. After completion of culture, the cells were digested with 5 ml of EDTA- trypsin (a phosphate buffer containing 0.01 % of EDTA and 0.125 % of trypsin and not containing calcium or magnesium ion) and, then, mixed with a sufficient quantity of DMEM to terminate the digestion. The digest was centrifuged at 1000 rpm for 2 minutes and the cells were then collected. The harvested cells were re-suspended in DMEM and filtered through a […] nylon filter to remove Descemet's membrane, leaving an exclusive suspension of cells. […]

O=C1O[C@H]([C@@H](O)CO)C(O)=C1OP(=O)(O)O [substance (I)]
permeation of CF through the cultured corneal endothelial cell monolayer: inhibits the permeation of CF
